Measured values reported in patent publication US20170105981A1, “METHODS FOR STABILIZING HYPOXIA INDUCIBLE FACTOR-2 ALPHA AS A METHOD FOR TREATING CANCER” (The Ohio State Innovation Foundation, priority 2011, published 2017).

How the values were obtained:
Type in all cases: cell-based
VEGF mRNA = VEGF mRNA expression (qPCR) in wild type murine embryonic fibroblasts; conditions: hypoxic conditions (1% O2), 1, 10 and 100 μM, vs. hypoxia control, FIG. 1A
Experimental: (§1) Total RNA was isolated from tissues and cells by using TRIzol™ Reagent (Invitrogen) and the RNeasy kit (Qiagen), respectively. 1 μg RNA was used for reverse transcription using SuperScript II First-Strand Synthersis System (Invitrogen). cDNA's were amplified in a SYR Green or TaqMan Universal Master Mix (Applied Biosystems). Quantitative PCR (qPCR) was performed on ABI Prism 7700 sequence detection system. PCR conditions are: 10 min at 95° C., 40 cycles of 15 seconds at 95° C. and 1 minute at 60° C. The relative amount of mRNA was calculated after normalization to β-actin.
(§2) Cells were cultured in DMEM (#11965-092, Invitrogen) supplemented with 10% fetal bovine serum (Invitrogen), 100 U/mL penicillin and […] streptomycin. For glucose deprivation, DMEM without glucose (#11966-025, Invitrogen) was used.
(§3) Mouse embryonic fibroblasts (MEFs) were isolated from E12.5 embryos and immortalized by stable transfection with SV40 large T antigen.

VEGF = VEGF production by human peripheral blood monocytes (ELISA, real-time PCR); conditions: monocytes with GM-CSF and compound vs GM-CSF alone; p=0.556; FIG. 11C
Experimental: (§4) Human peripheral blood mononuclear cells (PBMCs) were isolated from fresh peripheral blood leukocyte source packs (American Red Cross, Columbus Ohio) by density gradient centrifugation over Lymphocyte Separation Medium (Cellgro). Monocytes were purified from total PBMCs by layering over FBS. Monocytes were cultured in endotoxin-free RPMI-1640 supplemented with 1% fetal bovine serum (FBS), 0.1% human serum albumin (HSA), and 10 μg/mL of the endotoxin inhibitor polymyxin B. In some experiments, freshly isolated monocytes were differentiated into macrophages by three-day culture in media containing 10% FBS, 1% PSA (penicillin G sodium, streptomycin sulfate, and amphotericin B), and 20 ng/mL M-CSF. Macrophages were serum-starved for 2 hours prior to stimulation. Monocytes or monocyte-derived macrophages were treated for 24 hours with 10 ng/mL GM-CSF, 10 μM disclosed HIF-2α stabilizer, or an equivalent volume of the vehicle controls (PBS or DMSO, respectively). Cell-free culture supematants were harvested and analyzed for VEGF or sVEGFR-1 by ELISA (R&D Systems).
Human monocytes were left untreated or were stimulated with 100 ng/mL GM-CSF at normoxia or at 0.5% O2. At various time-points, cells were harvested in Trizol reagent (Invitrogen) and RNA was extracted in chloroform and then purified using the RNeasy Minikit (Qiagen). In murine studies, organs harvested at the time of euthanasia were flash-frozen in liquid nitrogen, pulverized in liquid nitrogen, and then dissolved in Trizol. cDNA was generated from 1 μg of RNA using the Superscript First Strand Synthesis System (Invitrogen) and used for real-time PCR using previously described primers and SYBR Green PCR Master Mix (Applied Biosciences), according to the manufacturer's instructions. Data were analyzed according to the comparative threshold method and normalized against the β-actin internal control transcript. Results are semi-quantitative and represent the fold difference in transcript levels in a particular sample as compared with levels in untreated cells from the same donor. […]

sVEGFR-1 = sVEGFR-1 production by human peripheral blood monocytes (ELISA, real-time PCR); conditions: monocytes with 100 ng/mL GM-CSF plus 10 μM compound vs GM-CSF alone, FIG. 11B
Experimental: as §4
Human monocytes were left untreated or were stimulated with 100 ng/mL GM-CSF at normoxia or at 0.5% O2. At various time-points, cells were harvested in Trizol reagent (Invitrogen) and RNA was extracted in chloroform and then purified using the RNeasy Minikit (Qiagen). In murine studies, organs harvested at the time of euthanasia were flash-frozen in liquid nitrogen, pulverized in liquid nitrogen, and then dissolved in Trizol. cDNA was generated from 1 μg of RNA using the Superscript First Strand Synthesis System (Invitrogen) and used for real-time PCR using previously described primers and SYBR Green PCR Master Mix (Applied Biosciences), according to the manufacturer's instructions. Data were analyzed according to the comparative threshold method and normalized against the β-actin internal control transcript. Results are semi-quantitative and represent the fold difference in transcript levels in a particular sample as compared with levels in untreated cells from the same donor.

[1] = tested on: phosphoglycerate kinase (PGK) mRNA; assay: PGK mRNA expression (qPCR) in wild type murine embryonic fibroblasts; conditions: hypoxic conditions (1% O2), 1, 10 and 100 μM, vs. hypoxia control, FIG. 2A
Experimental: as §1, §2, §3

O=C(O)CNC(=O)c1ncc(-c2cccc(F)c2)cc1O [disclosed HIF-2α stabilizer, {[5-(3-Fluorophenyl)-3-hydroxypyridine-2-carbonyl]amino} acetic acid]
VEGF mRNA (relative amount) (VEGF mRNA): dramatic reduction
VEGF transcript levels (VEGF): no difference
sVEGFR-1 production, protein level (sVEGFR-1; p=0.007): increased significantly
sVEGFR-1 production, transcript level (sVEGFR-1; p=0.033): increased significantly
PGK mRNA (relative amount) [1]: dramatic reduction
